Measurements taken from patent US10206898B2, “Compositions and methods for treating or preventing obesity in a subject in need thereof” (Amarin Pharmaceuticals Ireland Limited, priority 2013, dated 2019).

Test system: patients with fasting triglyceride levels ≥200 mg/dl and <500 mg/dl despite statin therapy
Test: 12-week placebo-controlled, randomized, double-blind study: lipoprotein particle concentrations
Type: in vivo, human
Method: A multi-center, placebo-controlled, randomized, double-blind, 12-week study was performed to evaluate the efficacy and safety of >96% E-EPA in patients with fasting triglyceride levels ≥200 mg/dl and <500 mg/dl despite statin therapy (the mean of two qualifying entry values needed to be ≥185 mg/dl and at least one of the values needed to be ≥200 mg/dl). The primary objective of the study was to determine the efficacy of >96% E-EPA 2 g daily and 4 g daily, compared to placebo, in lowering fasting TG levels in patients with high risk for cardiovascular disease and with fasting TG levels ≥200 mg/dl and <500 mg/dl, despite treatment to LDL-C goal on statin therapy. The population for this study was men and women >18 years of age with a body mass index ≤45 kg/m^2 with fasting TG levels greater than or equal to 200 mg/dl and less than 500 mg/dl and on a stable does of statin therapy (with or without ezetimibe). The statin was atorvostatin, rosuvastatin or simvastatin. The dose of statin must have been stable for ≥4 weeks prior to the LDL-C/TG baseline qualifying measurement for randomization. The statin dose was optimized such that the patients are at their LDL-C goal at the LDL-C/TG baseline qualifying measurements. The same statin at the same dose was continued until the study ended. Approximately 702 patients were randomized at approximately 80 centers in the U.S. The study was a 18- to 20-week, Phase 3, multi-center study consisting of 2 study periods: (1) A 6- to 8-week screening period that included a diet and lifestyle stabilization, a non-statin lipid-altering treatment washout, and an LDL-C and TG qualifying period and (2) A 12-week, double-blind, randomized, placebo-controlled treatment period. After confirmation of qualifying fasting LDL-C and TG values, eligible patients entered a 12-week, randomized, double-blind treatment period. At Visit 4 (Week 0), patients were randomly assigned to 1 of the following treatment groups: • >96% E-EPA 2 g daily, • >96% E-EPA 4 g daily, or • Placebo. Eligible patients were randomly assigned at Visit 4 (Week 0) to receive orally >96% E-EPA 2 g daily, >96% E-EPA 4 g daily, or placebo. >96% E-EPA was provided in 1 g liquid-filled, oblong, gelatin capsules. The matching placebo capsule was filled with light liquid paraffin and contained 0 g of >96% E-EPA. >96% E-EPA capsules were to be taken with food (i.e. with or at the end of a meal). […]

CC/C=C\C/C=C\C/C=C\C/C=C\C/C=C\CCCC(=O)OCC [Ethyl Eicosapentaenoate, ethyl eicosapentaenoate]
reduction of median concentrations of total HDL over baseline when adjusted for placebo (4 g per day, stated as a reduction (P<0.0001)): 7.4%
reduction of median concentrations of total LDL over baseline when adjusted for placebo (4 g per day, stated as a reduction (P<0.01)): 7.7%
HDL % Change (placebo-adjusted, relative to baseline) (4 g/day, 12 weeks, statin-treated patients, median total HDL particle concentration): −7.4%
LDL % Change (placebo-adjusted, relative to baseline) (4 g/day, 12 weeks, statin-treated patients, median total LDL particle concentration): −7.7%
